# Laboratory results: patent US6900216B2, “Dihydroimidazo[2,1-b]thiazole and dihydro-5h-thiazolo[3,2-A]pyrimidines as antidepressant agents” (Knoll GmbH, priority 2000, dated 2005)
# pKi: −log10 of the molar value.
# Target: T1, noradrenaline (NA) reuptake sites (Rattus norvegicus, UniProt Q63380)
# T1 construct: Frontal cortical tissue from the brains of male Charles River rats; from tissue; host or cells: rat frontal cortical membranes
# Assay: NA uptake: displacement of [3H]nisoxetine from noradrenaline reuptake sites, rat frontal cortical membranes
# Assay type: binding
# Conditions: 10^−6 M test compound, single determination, [3H]nisoxetine; read-out: NA uptake % displacement at 10^−6 M
# Procedure: Frontal cortical tissue from the brains of male Charles River rats weighing 150-250 g was homogenised in ice-cold 50 mM Tris-HCl, pH 7.4 (at 25° C.) containing 120 mM sodium chloride and 5 mM potassium chloride (Tris buffer; 1:60 w/v) using a Kinematic polytron (speed setting 6 for 10 seconds) and centrifuged at 40,000 g for 10 minutes. The supernatant was discarded and the pellet rehomogenised in Tris buffer, 1:60 w/v, and centrifuged at 40,000 g for 10 minutes. This step was repeated twice more so that, in total, the brain tissue was homogenised and centrifuged four times. The final pellet was resuspended in 50 mM Tris-HCl, pH 7.4 containing 300 mM sodium chloride and 5 mM potassium chloride (equivalent to 18.75 mg wet weight of tissue/ml) and used immediately in the binding assay. All centrifugations were performed at 4° C.
# Membranes (400 μl; equivalent to 7.5 mg wet weight of tissue/tube) were incubated with 50 μl [^3H]nisoxetine at a single concentration of 0.6 nM and 50 μl of distilled water (total binding) or 50 μl^− of test compound (at a single concentration 10^−6M or at 10 concentrations ranging from 10^−11-10^−3 M) or 50 μl of mazindol (1 μM; non-specific binding) for 4 h at 4° C. Membrane bound radioactivity was recovered by filtration under vacuum through Skatron 11734 filters using a Skatron cell harvester. Filters were rapidly washed with ice-cold 50 mM Tris-HCl, pH 7.4 containing 120 mM sodium chloride and 5 mM potassium chloride (wash setting 9,9,0). The scored filter paper discs were punched out into vials, scintillation fluid added and radioactivity determined by liquid scintillation counting.
# For each of these tests measuring the ability of compounds of Formula I to displace standard ligands from 5-HT1A receptors and 5-hydroxytryptamine (5-HT) and noradrenaline (NA) reuptake sites and muscarinic receptors in vitro, the percentage displacement of specific binding of tritiated ligand by 10^−6 M test compound was calculated in the following way.
# Firstly, specific binding of tritiated ligand in the absence (A) and presence (B) of test compound was determined:
# In the absence of compound: A(dpm)=Total binding (dpm)−Non-specific binding (dpm) In the presence of compound (10^−6 M): B(dpm)=Binding at 10^−6M (dpm)−Non-specific binding (dpm)
# The specific binding of tritiated ligand in the presence (B) of compound was then converted to a percentage of specific binding of tritiated ligand in the absence (A) of compound: % Specific binding at 10^−6 M=B(dpm)/A(dpm)×100
# The percentage displacement of specific binding of tritiated ligand by the test compound (10^−6 M) was then obtained by subtraction of the percentage specific binding in the presence of compound from the percentage specific binding in the absence of compound, which is taken as the maximum binding and so equals 100%:
# % Displacement at 10^−6 M=100−% Specific binding at 10^−6 M.
# In some cases, displacement curves were then produced for compounds which displaced ≧50% of specific binding of the tritiated ligand at 10^−6 M using a range of concentrations of the compound. The Ki was then calculated by simultaneous fitting using equations derived from the Feldman equations by robust non-linear regression to data from three experiments simultaneously (De Lean et al., 1978; Munson and Rodbard, 1980; Feldman, 1992). Munson P J and Rodbard D. Ligand: a versatile computerised approach for characterisation of ligand binding systems. Anal Biochem 1980; 107: 220. Feldman HA. Mathematical theory of complex ligand binding systems at equilibrium: some methods for parameter fitting. Anal Biochem 1992: 48, 317. De Lean A, Munson P J and Rodbard D. Simultaneous analysis of families of sigmoidal curves: application to bioassay, radioligand assay, and physiological dose-response curves. Am J Physiol 1978: 235 (2), E97-E102. […]
# T1 sequence (Q63380 1-617): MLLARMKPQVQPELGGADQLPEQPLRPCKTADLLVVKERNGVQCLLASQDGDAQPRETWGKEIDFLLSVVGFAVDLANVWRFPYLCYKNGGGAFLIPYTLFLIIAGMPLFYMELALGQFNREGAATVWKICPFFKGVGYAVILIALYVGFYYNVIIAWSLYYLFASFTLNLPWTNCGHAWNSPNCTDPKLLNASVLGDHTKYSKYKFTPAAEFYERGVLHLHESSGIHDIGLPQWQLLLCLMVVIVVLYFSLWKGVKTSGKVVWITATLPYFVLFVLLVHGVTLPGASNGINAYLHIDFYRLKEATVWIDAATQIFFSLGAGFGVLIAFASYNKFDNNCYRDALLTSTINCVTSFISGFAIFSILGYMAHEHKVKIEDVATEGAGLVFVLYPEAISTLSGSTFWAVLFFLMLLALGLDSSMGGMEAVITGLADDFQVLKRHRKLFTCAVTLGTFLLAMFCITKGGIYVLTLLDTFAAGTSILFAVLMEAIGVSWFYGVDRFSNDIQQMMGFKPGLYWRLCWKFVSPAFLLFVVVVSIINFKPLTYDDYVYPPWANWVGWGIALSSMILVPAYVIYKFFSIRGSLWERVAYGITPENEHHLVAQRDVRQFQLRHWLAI
row,inhibition at 1 µM,SMILES
1,101%,"CSC1=C(c2ccc3sccc3c2)N2CCN=C2S1 [Example 30, 3-(benzo[b]thiophen-5-yl)-2-(methylthio)-5,6-dihydroimidazo[2,1-b]thiazole]"

# Same assay, conditions: [3H]nisoxetine 0.6 nM, rat frontal cortical membranes; fit to data from three experiments
row,SMILES,pKi
1,"CSC1=C(c2cccc3sccc23)N2CCN=C2S1.Cl [Example 22, 3-(benzo[b]thiophen-4-yl)-2-(methylthio)-5,6-dihydroimidazo[2,1-b]thiazole hydrochloride]",8.82
2,"C1=C(c2cccc3sccc23)N2CCN=C2S1.Cl [Example 2, 3-(benzo[b]thiophen-4-yl)-5,6-dihydroimidazo[2,1-b]thiazole hydrochloride]",8.04
3,"CC(C)C1=C(c2ccc3sccc3c2)N2CCN=C2S1 [Example 29, 3-(benzo[b]thiophen-5-yl)-2-(1-methylethyl)-5,6-dihydroimidazo[2,1-b]-thiazole]",8.43
4,"CCC1=C(c2ccc3sccc3c2)N2CCN=C2S1.O=C(O)/C=C/C(=O)O [Example 31, 3-(benzo[b]thiophen-5-yl)-2-ethyl-5,6-dihydroimidazo[2,1-b]thiazole fumarate]",8.37
5,"CCC1=C(c2cccc3sccc23)N2CCN=C2S1.O=C(O)/C=C/C(=O)O [Example 25, 3-(benzo[b]thiophen-4-yl)-2-ethyl-5,6-dihydroimidazo[2,1-b]thiazole fumarate]",8.27
6,"CSC1=C(c2cccc3sccc23)N2CCN=C2S1.O=C(O)/C=C/C(=O)O [Example 32, 3-(benzo[b]thiophen-4-yl)-2-(methylthio)-5,6-dihydroimidazo[2,1-b]thiazole fumarate]",8.46
7,"Br.C=CCC1=C(c2cccc3sccc23)N2CCN=C2S1 [Example 36, 2-allyl-3-(benzo[b]thiophen-4-yl)-5,6-dihydroimidazo[2,1-b]thiazole hydrobromide]",8.77
8,"Br.CCC1=C(c2cccc3sccc23)N2CCN=C2S1 [Example 13, 3-(benzo[b]thiophen-4-yl)-2-ethyl-5,6-dihydroimidazo[2,1-b]thiazole hydrobromide]",8.44
9,"Br.c1cc(C2=C(C3CC3)SC3=NCCN32)c2ccsc2c1 [Example 34, 3-(benzo[b]thiophen-4-yl)-2-cyclopropyl-5,6-dihydroimidazo[2,1-b]thiazole hydrobromide]",8.70

# Results, then the compound that gave them:
row,pKi,SMILES
1,8.26,"Br.CC1=C(c2ccc3sccc3c2)N2CCN=C2S1 [Example 21, 3-(benzo[b]thiophen-5-yl)-2-methyl-5,6-dihydroimidazo[2,1-b]thiazole hydrobromide]"
2,7.60,"OCC1=C(c2cc3c(Cl)cccc3s2)N2CCN=C2S1 [Example 4, [3-(4-chlorobenzo[b]thiophen-2-yl)-5,6-dihydroimidazo[2,1-b]thiazol-2-yl]methanol]"
3,8.02,"Br.CC1=C(c2cc3c(F)cccc3s2)N2CCN=C2S1 [Example 7, 3-(4-fluorobenzo[b]thiophen-2-yl)-2-methyl-5,6-dihydroimidazo[2,1-b]thiazole hydrobromide]"
4,8.24,"Br.Oc1cccc2sc(C3=CSC4=NCCN34)cc12 [Example 12, 2-(5,6-dihydroimidazo[2,1-b]thiazol-3-yl)benzo[b]thiophen-4-ol hydrobromide]"
5,7.16,"Br.CC1=C(c2cc3c(Cl)cccc3s2)N2CCN=C2S1 [Example 10, 3-(4-chlorobenzo[b]thiophen-2-yl)-2-methyl-5,6-dihydroimidazo[2,1-b]thiazole hydrobromide]"
6,8.13,"Br.CC1=C(c2ccc3ccsc3c2)N2CCN=C2S1 [Example 37, 3-(benzo[b]thiophen-6-yl)-2-methyl-5,6-dihydroimidazo[2,1-b]thiazole hydrobromide]"
7,8.92,"Br.CC1=C(c2ccc(F)c3sccc23)N2CCN=C2S1 [Example 38, 3-(7-fluorobenzo[b]thiophen-4-yl)-2-methyl-5,6-dihydroimidazo[2,1-b]thiazole hydrobromide]"
8,7.68,"Br.CC1=C(c2cc3ccccc3s2)N2CCN=C2S1 [Example 6, 3-(benzo[b]thiophen-2-yl)-2-methyl-5,6-dihydroimidazo[2,1-b]thiazole hydrobromide]"
9,8.54,"OCC1=C(c2cccc3sccc23)N2CCN=C2S1 [Example 3, [3-(benzo[b]thiophen-4-yl)-5,6-dihydroimidazo[2,1-b]thiazol-2-yl]methanol]"
10,7.74,"OCC1=C(c2cc3ccccc3s2)N2CCN=C2S1 [Example 15, [3-(benzo[b]thiophen-2-yl)-5,6-dihydroimidazo[2,1-b]thiazol-2-yl]methanol]"
11,8.40,"CC1=C(c2cccc3ccsc23)N2CCN=C2S1.Cl [Example 23, 3-(benzo[b]thiophen-7-yl)-2-methyl-5,6-dihydroimidazo[2,1-b]thiazole hydrochloride]"
12,8.23,"CC1=C(c2cccc3sccc23)N2CCN=C2S1.Cl [Example 9, 3-(benzo[b]thiophen-4-yl)-2-methyl-5,6-dihydroimidazo[2,1-b]thiazole hydrochloride]"

# Same assay, conditions: read-out: NA uptake % displacement at 10^−6 M
row,SMILES,inhibition at 1 µM
1,"CC1=C(c2cccc3sc(C)cc23)N2CCN=C2S1.Cl [Example 33, 2-methyl-3-(2-methylbenzo[b]thiophen-4-yl)-5,6-dihydroimidazo[2,1-b]thiazole hydrochloride]",84%
2,"Br.CC1(c2cc3cc(F)ccc3s2)CSC2=NCCN21 (stereo not drawn) [Example 27, 3-(5-fluorobenzo[b]thiophen-2-yl)-3-methyl-5,6-dihydroimidazo[2,1-b]thiazole hydrobromide]",72%
3,"Br.CC1=C(c2cc3c(Cl)c(Cl)ccc3s2)N2CCN=C2S1 [Example 24, 3-(4,5-dichlorobenzo[b]thiophen-2-yl)-2-methyl-5,6-dihydroimidazo[2,1-b]-thiazole hydrobromide]",39%
4,"Br.CCC1=C(c2cc3cc(Cl)ccc3s2)N2CCN=C2S1 [Example 11, 3-(5-chlorobenzo[b]thiophen-2-yl)-2-ethyl-5,6-dihydroimidazo[2,1-b]thiazole hydrobromide]",92%
5,"Cl.Fc1cccc2sc(C3=CSC4=NCCN34)cc12 [Example 5, 3-(4-fluorobenzo[b]thiophen-2-yl)-5,6-dihydroimidazo[2,1-b]thiazole hydrochloride]",100%
6,"C=CC1=C(c2cccc3sccc23)N2CCN=C2S1.Cl [Example 39, 3-(benzo[b]thiophen-4-yl)-2-vinyl-5,6-dihydroimidazo[2,1-b]thiazole hydrochloride]",100%
7,"Br.CC1=C(c2cc3cccc(Cl)c3s2)N2CCN=C2S1 [Example 20, 3-(7-chlorobenzo[b]thiophen-2-yl)-2-methyl-5,6-dihydroimidazo[2,1-b]thiazole hydrobromide]",47%
8,"Br.COc1cccc2cc(C3=C(C)SC4=NCCN43)sc12 [Example 26, 3-(7-methoxybenzo[b]thiophen-2-yl)-2-methyl-5,6-dihydroimidazo[2,1-b]thiazole hydrobromide]",-3%
9,"Cc1cccc2sc(C3=CSC4=NCCN34)cc12.Cl [Example 14, 3-(4-methylbenzo[b]thiophen-2-yl)-5,6-dihydroimidazo[2,1-b]thiazole hydrochloride]",87%
10,"Br.Clc1cccc2sc(C3=CSC4=NCCN34)cc12 [Example 1, 3-(4-chlorobenzo[b]thiophen-2-yl)-5,6-dihydroimidazo[2,1-b]thiazole hydrobromide]",103%
11,"Br.CC1=C(c2cc3c(Cl)cccc3s2)N2CCCN=C2S1 [Example 17, 3-(4-chlorobenzo[b]thiophen-2-yl)-2-methyl-6,7-dihydro-5H-thiazolo[3,2-a]pyrimidine hydrobromide]",84%
